Columns and labels:
Type in all cases: biochemical
StvM1 = biological target: T1, StvM1 (Streptomyces spectabilis, UniProt A0A286SC47); experiment: LC-ESI-HRMS conversion of […] to […]; conditions: methyl donor; 100 μM damavaricin C, 50 mM Tris-HCl pH 7.5, 28 °C, 3 h
T1 construct: N-terminal 6xHis tag, pET28a(+) NdeI/EcoRI, expressed in E. coli BL21(DE3)
T1 sequence (A0A286SC47 1-202): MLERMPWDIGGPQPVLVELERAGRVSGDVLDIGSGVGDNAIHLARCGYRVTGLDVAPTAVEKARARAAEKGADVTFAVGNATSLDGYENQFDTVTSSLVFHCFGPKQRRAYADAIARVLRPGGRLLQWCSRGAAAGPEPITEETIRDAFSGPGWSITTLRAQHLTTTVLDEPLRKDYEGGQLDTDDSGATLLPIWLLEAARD

StvP2 [1] = biological target: T2, StvP2 (Streptomyces spectabilis, UniProt A0A286SBY7); experiment: HPLC-DAD product formation, modified Hill equation fit; conditions: spinach Fdx/FdR, 4 mM NADPH, 50 mM Tris-HCl pH 7.5, 28 °C, 4 min; substrate inhibition, descending arm
T2 construct: N-terminal 6xHis tag, eight amino acids between tag and StvP2 removed, expressed in E. coli C43(DE3); heme-containing (Cys349 ligand); one molecule per asymmetric unit when substrate-free
T2 sequence (A0A286SBY7 entry or part of it): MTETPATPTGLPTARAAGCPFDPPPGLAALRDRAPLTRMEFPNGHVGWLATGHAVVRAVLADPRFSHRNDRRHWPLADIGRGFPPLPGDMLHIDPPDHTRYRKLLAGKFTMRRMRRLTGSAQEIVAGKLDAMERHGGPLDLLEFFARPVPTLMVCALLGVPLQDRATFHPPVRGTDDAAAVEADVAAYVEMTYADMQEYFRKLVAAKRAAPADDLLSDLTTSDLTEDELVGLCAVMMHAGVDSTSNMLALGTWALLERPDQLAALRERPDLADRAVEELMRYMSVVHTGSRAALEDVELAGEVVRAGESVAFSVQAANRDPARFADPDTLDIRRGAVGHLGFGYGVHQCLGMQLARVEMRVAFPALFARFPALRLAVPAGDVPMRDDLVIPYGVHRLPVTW

StvP2 [2] = biological target: T2, StvP2; experiment: as above; conditions: spinach Fdx/FdR, 4 mM NADPH, 50 mM Tris-HCl pH 7.5, 28 °C, 4 min; ascending arm of substrate-inhibition curve; read-out: Ks

Compound	LC-ESI-HRMS conversion of 7 to 8 (StvM1)	Ki (StvP2 [1]) [µM]	Km (StvP2 [2]) [µM]
C[S+](CC[C@H](N)C(=O)O)C[C@H]1O[C@@H](n2cnc3c(N)ncnc32)[C@H](O)[C@@H]1O (stereo partly shown) [SAM]	using SAM as methyl donor		
COC(=O)[C@@H]1[C@H](O)[C@H](C)[C@H](O)[C@H](C)/C=C\C=C(/C)C(=O)Nc2c(C)c(OC(C)=O)c3c(c(OC)c(C)c(O)c3c2O)C(=O)/C(C)=C/[C@@](C)(O)[C@H](O)[C@@H](C)[C@H]1O [compound 2, 6-methoxy-streptovaricin C]		367.30 ± 128.57	110 ± 46.2
6-methoxy-streptovaricin D [compound 6]		288.50 ± 122.60	67.4 ± 28.4
6-methoxy-streptovaricin H [compound 4]		399.35 ± 122.10	95.6 ± 30.8
